Measured values published in US20220372441A1, “MICRORNAS ENRICHED IN MEGAKARYOCYTIC EXTRACELLULAR VESICLES AND USES THEREOF” (University of Delaware, priority 2019, published 2022).

Key:
CD34+ HSPCs [1] = test: Signaling-inhibitor experiments: MkMP-induced Mk differentiation of inhibitor-pretreated CD34+ HSPCs; settings: for percent of cells CD34−CD41+: day 12, representative quadrant plots (FIG. 11E); for fraction of cells CD34+CD41−: day 7, representative quadrant plots (FIG. 11E)
Experimental: Signaling-inhibitor experiments: 60,000 CD34^+ HSPCs were pretreated with signaling inhibitors for 30 min, followed by co-culture with MkMPs (30 MPs per cell) in IMDM supplemented with 10% BIT 9500 and 50 ng/mL SCF. Inhibitors were replenished at days 3 and 7. At day 4, 7 and 12, cells were harvested for flow cytometric analysis of CD41, CD42b, and CD34 expression. Total-cell and Mk counts were measured at day 7.
To further investigate the effects of MkMPs in promoting megakaryocytic differentiation of CD34^+ HSPCs, and how this might relate to the miR content of MkMPs, we next probed likely signaling pathways using kinase inhibitors. […] Briefly, CD34^+ HSPCs were pretreated with kinase inhibitors of chosen signaling pathways (JNK, p38, MEK, PI3K, Akt and mTOR inhibitors, Table 6) for 30 min before they were co-cultured with MkMPs at the ratio of 10 MkMPs/cell. Inhibitors were replenished at days 3 and 7. CD41, CD42b and CD34 expression, and cell numbers were measured at days 4, 7, and 12.

PTEN [2] = test: PTEN protein expression by flow cytometry in CD34+ HSPCs; type: cell-based, human; settings: JNK inhibitor pretreatment, MkMP co-culture 24 hours (FIG. 13A)
Experimental: Cells were fixed in 4% paraformaldehyde for 15 min at room temperature, followed by the permeabilization in 90% methanol for 30 min at 4° C. After washing in PBS, cells were stained with Alexa 647-conjugated anti-mTOR (#5048S), PE-conjugated anti-Akt (#8790S), or Alexa 488-conjugated anti-p-Akt (#4071S) antibodies from Cell Signaling, or Alexa 647-conjugated anti-p-mTOR (#564242) from BD bioscience, for 1 hour at room temperature, followed by flow-cytometric analysis.
Phosphatase and TENsin homolog (PTEN) is a negative regulator of PI3K/Akt signaling in HSC development. Loss of PTEN results in enhanced cellular proliferation and megakaryopoiesis due to overactive of PI3K/Akt signaling. We hypothesized that activation of PI3K/Akt/mTOR signaling by MkMPs might be PTEN mediated. We thus examined the mRNA level of PTEN by quantitative PCR, and PTEN protein level by flow cytometry and immunoblotting. The impact on PTEN mRNA levels appears higher than that on protein levels. Compared to the vehicle control, PTEN protein or mRNA levels were around 10% or 30% lower, respectively, in HSPCs co-cultured with MkMPs (FIGS. 13A and 13B). […] These statistically-significant but relatively low-impact effects on PTEN protein expression would be expected given that the measurements were done within the first 24 hours of the co-culture, rather than late in the co-culture.

PTEN [3] = test: PTEN mRNA level by qRT-PCR in CD34+ HSPCs; type: cell-based, human; settings: JNK inhibitor pretreatment, MkMP co-culture 24 hours (FIG. 13B)
Experimental: Quantitative reverse transcription PCR (qRT-PCR): CD34^+ HSPCs pretreated with JNK inhibitor or solution without an inhibitor were co-cultured with MkMPs, non-targeting miR-loaded MkMPs, miR-486-5p inhibitor-loaded MkMPs at 30 MPs per cell, or vehicle control. At 24 hr, cells were harvested and total RNA was isolated, reversed transcribed for qPCR assay as described by Kao and Papoutsakis (Sci Adv. 2018; 4:eaau6762). qPCR assays for PTEN and GAPDH were performed with PerfeCTa SYBR Green Supermix (QuantaBio) and the following primers: Forward (5′-[…]-3′) (SEQ ID NO: 1), Reverse (5′-[…]-3′) (SEQ ID NO: 2) for PTEN, and Forward (5′-[…]-3′) (SEQ ID NO: 3), Reverse (5′-[…]-3′) (SEQ ID NO: 4) for GAPDH. PTEN mRNA level were quantified by normalized to GAPDH mRNA level as the reference gene.
Phosphatase and TENsin homolog (PTEN) is a negative regulator of PI3K/Akt signaling in HSC development. Loss of PTEN results in enhanced cellular proliferation and megakaryopoiesis due to overactive of PI3K/Akt signaling. We hypothesized that activation of PI3K/Akt/mTOR signaling by MkMPs might be PTEN mediated. We thus examined the mRNA level of PTEN by quantitative PCR, and PTEN protein level by flow cytometry and immunoblotting. The impact on PTEN mRNA levels appears higher than that on protein levels. […]

CD34+ HSPCs [4] = test: Transfection of CD34+ HSPCs with miR mimics, culture without TPO; flow cytometry of CD41/CD42b, Mk and total cell counts; type: cell-based, human
Experimental: Transfection of CD34^+ HSPCs with miR mimics: 200,000 CD34^+ cells were freshly thawed and cultured in IMDM supplemented with 20% BIT 9500, and 100 ng/mL SCF. After 3 hours, cells were transfected with 8 μM of miR mimics, non-targeting miR (miR-NC), or without miR (No miR) using the Amaxa Nucleofector II with program U-08. […] Cells cultured in TPO-supplemented medium (100 ng/ml TPO), or co-cultured with MkMPs served as positive controls (TPO, MkMP). The medium was replaced one day after transfection. […] At day 13, cells were harvested for serotonin (5-HT), von willebrand factor (vWF), beta 1 tubulin (TUBB1), and DAPI staining, as described^7. The images were taken by ZEISS LSM 880 multiphoton confocal microscope. At day 16, cells were harvested for ploidy analysis by flow-cytometric analysis as described by Lindsey and Papoutsakis (Br J Haematol. 2011; 152(4):469-484).
To determine if there is a dose effect of miR mimics on Mk differentiation of HSPCs, using CD41 expression as the key early Mk-differentiation marker, we carried out a pilot study with two donor CD34^+-cell samples. CD34^+ HSPCs were transfected with high (8 μM) or low (2 μM) concentrations of miR-486-5p or miR-22-3p (generally known as miR-22) mimics were and cultured without TPO. […]

[5] = day 7, MkMP co-culture, inhibitor 10 uM (FIG. 11A)

Compound	percent of cells CD34−CD41+ (CD34+ HSPCs [1])	CD41 expression (CD34+ HSPCs [1]; [5])	fraction of cells CD34+CD41− (CD34+ HSPCs [1])	also measured
O=c1cc(N2CCOCC2)oc2c(-c3ccccc3)cccc12 [LY-294002]	16.5%	–	–	–
CO[C@H]1C[C@@H]2CC[C@@H](C)[C@@](O)(O2)C(=O)C(=O)N2CCCC[C@H]2C(=O)O[C@H]([C@H](C)C[C@@H]2CC[C@@H](O)[C@H](OC)C2)CC(=O)[C@H](C)/C=C(\C)[C@@H](O)[C@@H](OC)C(=O)[C@H](C)C[C@H](C)/C=C/C=C/C=C/1C [Rapamycin]	6.0%	32.1%	48.3%	–
C[S+]([O-])c1ccc(-c2nc(-c3ccncc3)c(-c3ccc(F)cc3)[nH]2)cc1 (centres unmarked) [SB203580]	–	–	43.4%	CD41 expression (CD34+ HSPCs [1]; day 12, MkMP co-culture, compared to MkMP control (FIG. 11B)): significantly suppressed CD41 expression
Oc1c2ccccc2c2c3c(cccc13)N=N2 [SP600125]	12.6%	32.8%	52.1%	PTEN protein level above vehicle-control level (PTEN [2]): 17%; PTEN mRNA level above vehicle-control level (PTEN [3]): 260%
COC[C@H]1OC(=O)c2coc3c2[C@@]1(C)C1=C(C3=O)[C@@H]2CCC(=O)[C@@]2(C)C[C@H]1OC(C)=O [Wortmannin]	25.3%	–	–	–
TPO: recombinant human thrombopoietin, 100 ng/ml, positive control	–	–	–	percent of cells expressing CD41 (CD34+ HSPCs [4]; day 13, electroporated CD34+ cells, miR mimics without TPO, TPO 100 ng/ml or MkMP co-culture as positive controls (FIGS. 7A, 7B)): 56%; percent CD41+CD42b+ double positive cells (CD34+ HSPCs [4]; day 13, representative quadrant plots (FIG. 7D)): 38.9%
